These results are taken from US7759291B2, “Pyrazole compounds and use thereof” (Sumitomo Chemical Company, Limited, priority 2004, dated 2010).

Assay [1] deals with Tetranychus urticae. In words: Test Example 1: spray test against Tetranychus urticae on brush bean, Controlling Rate. The note with it: 200 ppm, 30 ml sprayed over brush bean (Phaseolus vulgaris) with female adults. In kind it is in vivo. On the procedure:
The formulation obtained according to Formulation Example 1 using the present invention compounds (1) to (30) and the comparative compound (a) described below respectively, was diluted with water so that the concentration of the present invention compound or the comparative compound came to 200 ppm. About twenty female adults of Tetranychus urticae were set free on brush bean (Phaseolus vulgaris) in the primary leaf stage, which had been potted in a plastic cup for 7 days after the seeding. After 1 day, a 30 ml of the diluted formulation described-above was sprayed over the plant. On the 8th and 13th day after the application, the numbers of lived Tetranychus urticae on the leaf of brush bean plant were examined, and the Controlling Rates were calculated by the following scheme. Controlling Rate=100×{1−(a number of lived Tetranychus urticae in the treatment)/(a number of lived Tetranychus urticae in the non-treatment)}

Assay [2] concerns Adoxophyes orana fasciata. Briefly: Test Example 2: spray test on apple seedling against first-instar larvae of Adoxophyes orana fasciata, rate of dead pests. The note with it: 200 ppm, 30 ml sprayed over apple seedling, 7th day after application. Format: in vivo. On the procedure:
The formulation obtained according to Formulation Example 1 using the present invention compound (25): [drawing 138] and the comparative compound (b) described below respectively, was diluted with water so that the concentration of the present invention compound or the comparative compound came to 200 ppm. 30 ml of the diluted formulation described above was sprayed over the seedling of apple, which had been potted in plastic cup for 28 days after seeding about 15 cm height. After the sprayed solution was dried, about sixty first-instar larvae of Adoxophyes orana fasciata were set free on the apple seedling. On the 7 th day after application, the number of surviving or dyed Adoxophyes orana fasciata on the apple seedling was examined, and the rate of dead pests was calculated.

Some results are limits rather than exact numbers.

Regarding `Cc1nn(C)c(Oc2ccc(Oc3ccc(C(F)(F)F)cc3)cc2)c1C=NOCc1ccccc1` [comparative compound (a)], the “Controlling Rate” value in assay [1] (8th day after the application) and in assay [1] (13th day after the application) was “less than 30%” each time. For `Cc1nn(C)c(Oc2ccc(Oc3ccc(C(F)(F)F)cc3)cc2)c1C=O` [comparative compound (b)], the “rate of dead pests” value in assay [2] is “less than 80%”. On to `C=CCOc1ccc(Oc2ccc(Oc3c(C)c(C)nn3C)cc2)cc1` [present invention compound (25)], for which the “rate of dead pests” value in assay [2] is recorded as not below 90%.
